This passage reports IC50 results from patent US20130183266A1, “COMPOUNDS AND METHODS FOR THE TREATMENT OR PREVENTION OF FLAVIVIRUS INFECTIONS” (Vertex Pharmaceuticals Incorporated, priority 2010, published 2013).

For assay [1], the system named is HCV replicon (genotype 1b) in Huh7 hepatoma cell line ET. Description: microbe, parasite or virus in culture. The assay is classed as cell-based. To be noted: Hepatitis C virus, Huh-7, 96 h, read-out: HCV-Replicon-1b- IC50.
For assay [2], the system named is HCV sub-genomic replicon of genotype 1a in replicon cell line W11.8. Description: microbe, parasite or virus in culture. To be noted: Hepatitis C virus, W11.8, 96 h, read-out: HCV-Replicon-ELISA-1a-IC50. It is filed as cell-based.

As to `[2H]c1c([2H])c([2H])c(-c2cc(N(C(=O)C3CCC(C)CC3)[C@H]3CC[C@H](O)CC3)c(C(=O)O)s2)c([2H])c1[2H]` (stereo partly drawn) [Compound 1, 3-[(trans-4-Hydroxy-cyclohexyl)-(trans-4-methylcyclohexanecarbonyl)-amino]-5-d5-phenyl-thiophene-2-carboxylic acid], the IC50 in assay [1] was in the range of 100 to 1000 nM.

`[2H][C@]1(O)CC[C@H](N(C(=O)C2CCC(C)CC2)c2cc(-c3ccccc3)sc2C(=O)O)CC1` (stereo partly shown) [Compound 4]: the IC50 in assay [1] fell in the range of 100 to 1000 nM.

Regarding `[2H][C@]1(O)CC[C@H](N(C(=O)C2CCC(C)CC2)c2cc(C#CC(C)(C)C)sc2C(=O)O)CC1` (stereo partly shown) [Compound 3], the IC50 in assay [2] and in assay [1] was below 100 nM each time.
